Test results published in US5919784A, “Heterocyclic aminomethyl compounds” (Adir Et Compagnie, priority 1996, dated 1999).
Where a name gives a salt, the structure may show the parent alone.

How the values were obtained:
D4 receptors = conditions: literature; cited from earlier work
human D4.4 receptor = biological target: T1, human D4.4 receptor (Homo sapiens, UniProt P21917); assay: Antagonism at human D4.4 receptors, [35S]GTPγS binding (G protein activation) stimulated by dopamine; assay type: biochemical; conditions: antagonism of dopamine-stimulated [35S]GTPγS binding; antagonist preincubated with fixed concentration of dopamine 30 min; CHO membranes; read-out: Kb (antagonist potency constant)
T1 construct: purchased Receptor Biology Inc. (Md., USA); host or cells: CHO cells (transfected), membranes
T1 sequence (P21917 1-419): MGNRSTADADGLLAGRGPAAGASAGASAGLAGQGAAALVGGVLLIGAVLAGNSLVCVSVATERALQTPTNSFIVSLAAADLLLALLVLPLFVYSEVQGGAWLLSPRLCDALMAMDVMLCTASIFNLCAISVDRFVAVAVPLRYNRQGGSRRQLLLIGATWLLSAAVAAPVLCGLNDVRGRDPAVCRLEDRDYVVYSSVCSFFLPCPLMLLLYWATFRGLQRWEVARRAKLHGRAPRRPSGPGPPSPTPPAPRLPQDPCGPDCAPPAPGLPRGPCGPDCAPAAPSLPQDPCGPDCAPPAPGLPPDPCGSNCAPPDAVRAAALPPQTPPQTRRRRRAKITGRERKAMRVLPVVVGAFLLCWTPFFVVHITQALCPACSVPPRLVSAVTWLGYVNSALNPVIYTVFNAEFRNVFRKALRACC
Method: The efficacy was determined by measuring the activation of G proteins by stimulating the binding of [^35 S]GTPγS (NEN, Les Ulis, France). The membranes prepared from CHO cells transfected with the human D4.4 receptor were purchased from Receptor Biology Inc. (Md., USA). The membranes (50 μg of membrane protein) are incubated in triplicate with 0.1 nM [^35 S]GTPγS and the cold ligand in a final volume of 0.5 ml for 20 min at 25° C. The incubation buffer contains 20 mM HEPES (pH 7.4), 3 μM GDP, 3 mM MgCl2 and 100 mM NaCl. At the end of the incubation, the incubation medium is filtered through WHATMAN GF/B filters impregnated with water and washed three times with 2 ml of cooled buffer. The radioactivity retained on the filters is determined by liquid scintillation counting. The binding isotherms are analyzed by nonlinear regression using `PRISM` software (GraphPad Software Inc., S. Diego, USA) to determine EC50 and efficacy (Emax) values. The efficacy is expressed as a percentage of the stimulation of the binding of [^35 S]GTPγS induced by dopamine.
For the tests of antagonism, the membranes are preincubated with the antagonist at a fixed concentration of dopamine for 30 min before adding the [^35 S]GTPγS. […]
in which [Antagonist] is the antagonist concentration and EC50 is the EC50 determined in the absence of antagonist (dopamine alone).

Row | Kb (human D4.4 receptor) [nM] | Structure (SMILES) | affinity for the D4 receptors (in words) (D4 receptors)
1 |  | NC[C@H](O)c1ccc(O)c(O)c1 [noradrenaline] | high affinity
2 | 16.1 ± 5 | Cn1c(=O)sc2cc(CN3CCN(c4ccccc4F)CC3)ccc21 [Example 3, 3-METHYL-6-[(4-(2-FLUOROPHENYL)-1-PIPERAZINYL)METHYL]-BENZOTHIAZOLINONE] | 
3 | 2.39 ± 1.1 | COc1ccccc1N1CCN(Cc2ccc3c(c2)sc(=O)n3C)CC1 [Example 1, 3-METHYL-6-[(4-(2-METHOXYPHENYL)-1-PIPERAZINYL)METHYL]-BENZOTHIAZOLINONE HYDROCHLORIDE] | 
4 |  | CN1CCN(C2=Nc3cc(Cl)ccc3Nc3ccccc32)CC1 [clozapine] | high affinity
